By half-life is commonly meant the time needed for the level to fall by half in the phase considered. The pEC50 is the negative decadic logarithm of the EC50, by convention in mol/L. By Emax is commonly meant the maximal effect, on the per cent scale that the assay sets. The term ED50 denotes the dose at which the effect has come halfway, by size or by number of responders.

pEC50: −log10 of the molar value. Calls of active or inactive are those of the source. Bridge positions count the residues as written; N and C are the ends. Square brackets hold non-standard residues; d marks the D form. Peptide text beside a SMILES is read from it. NMeF = CN[C@@H](Cc1ccccc1)C(=O)O; dDab = NCC[C@@H](N)C(=O)O; dDap = NC[C@@H](N)C(=O)O

The subject of data set [1] is Mus musculus. Description: Potency index, ratio of test compound ED50 to DN-9 ED50 for antinociceptive activity against Kunming mouse model of thermal-induced nociception assessed as peripheral analgesia administered subcutaneously by tail-flick test. The class given is functional. In general terms: Hot-plate and tail-flick tests time the reaction to a heat stimulus.

Data set [2] relates to Mus musculus. As to the kind of experiment: Antinociceptive activity against Kunming mouse model of thermal-induced nociception assessed as maximum possible effect at 89 nmol/kg, po measured after 60 min by tail flick test relative to control. The class given is functional. The following applies: 1 h.
Data set [3] can be described thus: Metabolic stability in mouse plasma assessed as degradation half life at 0.01 M measured up to 360 mins. The class given is ADME, cell-free.
Data set [4] has as its target T1, Delta-type opioid receptor (Homo sapiens, UniProt P41143). As to the kind of experiment: Agonist activity at DOR (unknown origin) expressed in HEK293-A cells assessed as inhibition of forskolin-induced cAMP accumulation preincubated for 30 mins in presence of 3-isobutyl-1-methylxanthine followed by forskolin and compound addition by competitive PKA binding assay. The class given is functional, cell-based.

Data set [5] relates to Mus musculus. As to the kind of experiment: Antinociceptive activity against Kunming mouse model of thermal-induced nociception assessed as maximum possible effect at 89 nmol/kg, po measured after 30 min by tail flick test relative to control. The following applies: 0.5 h. The class given is functional.
Data set [6] deals with Mus musculus. Description: Antinociceptive activity in Kunming mouse assessed as analgesic tolerance administered subcutaneously once daily for 8 days by tail flick test. The format is functional, organism-based. Particulars: time 8.0 day.
For data set [7], the target named is T2, Neuropeptide FF receptor 2 (Homo sapiens, UniProt Q9Y5X5). Description: Agonist activity at NPFF2R (unknown origin) expressed in HEK293-A cells assessed as inhibition of forskolin-induced cAMP accumulation preincubated for 30 mins in presence of 3-isobutyl-1-methylxanthine followed by forskolin and compound addition by competitive PKA binding assay. The format is functional, cell-based. Particulars: for pEC50: read-out: EC50. In general terms: Cyclic AMP is a second messenger, typically raised through Gs and lowered through Gi signalling.
T2 sequence (Q9Y5X5 whole entry): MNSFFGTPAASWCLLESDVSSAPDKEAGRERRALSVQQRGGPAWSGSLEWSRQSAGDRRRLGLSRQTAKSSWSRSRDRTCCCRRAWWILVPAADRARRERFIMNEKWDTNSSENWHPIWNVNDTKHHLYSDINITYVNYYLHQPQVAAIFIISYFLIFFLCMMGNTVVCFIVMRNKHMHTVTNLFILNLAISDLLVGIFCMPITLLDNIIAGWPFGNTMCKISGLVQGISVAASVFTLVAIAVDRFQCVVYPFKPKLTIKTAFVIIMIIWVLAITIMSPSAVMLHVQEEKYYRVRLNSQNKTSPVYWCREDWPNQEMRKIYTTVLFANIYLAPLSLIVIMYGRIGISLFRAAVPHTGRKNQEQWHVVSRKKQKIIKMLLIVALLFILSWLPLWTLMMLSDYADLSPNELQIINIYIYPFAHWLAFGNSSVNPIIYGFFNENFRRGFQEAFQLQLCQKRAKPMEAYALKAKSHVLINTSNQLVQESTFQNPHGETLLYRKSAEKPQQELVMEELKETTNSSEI

Data set [8] deals with T3, Neuropeptide FF receptor 1 (Homo sapiens, UniProt Q9GZQ6). Description: Agonist activity at NPFF1R (unknown origin) expressed in HEK293-A cells assessed as inhibition of forskolin-induced cAMP accumulation preincubated for 30 mins in presence of 3-isobutyl-1-methylxanthine followed by forskolin and compound addition by competitive PKA binding assay. The class given is functional, cell-based.
T3 sequence (Q9GZQ6 whole entry): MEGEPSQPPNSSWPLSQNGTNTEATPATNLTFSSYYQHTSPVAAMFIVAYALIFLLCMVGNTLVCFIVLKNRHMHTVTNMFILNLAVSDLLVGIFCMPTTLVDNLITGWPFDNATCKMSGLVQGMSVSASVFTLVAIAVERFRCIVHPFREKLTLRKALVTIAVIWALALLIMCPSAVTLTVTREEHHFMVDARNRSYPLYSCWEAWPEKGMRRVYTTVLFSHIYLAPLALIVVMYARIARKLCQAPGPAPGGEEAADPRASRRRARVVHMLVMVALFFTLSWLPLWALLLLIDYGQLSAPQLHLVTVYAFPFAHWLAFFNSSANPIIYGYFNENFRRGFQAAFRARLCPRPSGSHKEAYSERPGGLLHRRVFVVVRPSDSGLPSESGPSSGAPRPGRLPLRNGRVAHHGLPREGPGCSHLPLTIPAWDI

A further data set addresses Mu-type opioid receptor (Homo sapiens, UniProt P35372).
Data set [9] addresses T2, Neuropeptide FF receptor 2. Description: Agonist activity at NPFF2R (unknown origin) expressed in HEK293-A cells assessed as inhibition of forskolin-induced cAMP accumulation by measuring maximal efficacy preincubated for 30 mins in presence of 3-isobutyl-1-methylxanthine followed by forskolin and compound addition by competitive PKA binding assay relative to control. The class given is functional, cell-based. The following applies: filed as agonist.

Data set [10] deals with Mus musculus. As to the kind of experiment: Antinociceptive activity against Kunming mouse model of thermal-induced nociception assessed as peripheral analgesia administered subcutaneously by tail-flick test. The format is functional. Particulars: sc.
Data set [11] deals with Kappa-type opioid receptor (Homo sapiens, UniProt P41145). The class given is functional, cell-based, HEK293-A.
Sequence of Kappa-type opioid receptor (P41145 whole entry): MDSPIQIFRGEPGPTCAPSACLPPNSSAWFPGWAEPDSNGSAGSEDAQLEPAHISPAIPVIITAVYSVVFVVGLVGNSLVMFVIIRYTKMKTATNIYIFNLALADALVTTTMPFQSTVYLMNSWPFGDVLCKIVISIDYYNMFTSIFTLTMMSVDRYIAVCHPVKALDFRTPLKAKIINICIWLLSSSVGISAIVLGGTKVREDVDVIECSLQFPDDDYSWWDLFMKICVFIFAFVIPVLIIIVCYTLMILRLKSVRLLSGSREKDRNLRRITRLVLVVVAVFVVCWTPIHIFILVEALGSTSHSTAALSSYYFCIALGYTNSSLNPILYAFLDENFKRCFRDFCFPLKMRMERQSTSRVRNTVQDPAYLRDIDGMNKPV
Data set [12] deals with T1, Delta-type opioid receptor. As to the kind of experiment: Agonist activity at DOR (unknown origin) expressed in HEK293-A cells assessed as inhibition of forskolin-induced cAMP accumulation preincubated for 30 mins in presence of 3-isobutyl-1-methylxanthine followed by forskolin and compound addition by competitive PKA binding assay relative to control. The format is functional, cell-based.

Data set [13] has as its system Mus musculus. Description: Antinociceptive activity against Kunming mouse model of thermal-induced nociception assessed as duration of analgesic effect administered subcutaneously by tail-flick test. The format is functional.
Data set [14] deals with Mus musculus. As to the kind of experiment: Antinociceptive activity against Kunming mouse model of thermal-induced nociception assessed as maximum possible effect at 89 nmol/kg, po measured after 20 min by tail flick test relative to control. The class given is functional.
Data set [15] concerns the target T3, Neuropeptide FF receptor 1. As to the kind of experiment: Agonist activity at NPFF1R (unknown origin) expressed in HEK293-A cells assessed as inhibition of forskolin-induced cAMP accumulation by measuring maximal efficacy preincubated for 30 mins in presence of 3-isobutyl-1-methylxanthine followed by forskolin and compound addition by competitive PKA binding assay relative to control. The format is functional, cell-based. Particulars: filed as agonist.

The test system of data set [16] is Mus musculus. As to the kind of experiment: Antinociceptive activity against Kunming mouse model of thermal-induced nociception assessed as maximum possible effect at 90.1 nmol/kg, po measured after 20 min by tail flick test relative to control. The format is functional.
The test system of data set [17] is Mus musculus. As to the kind of experiment: Antinociceptive activity against Kunming mouse model of thermal-induced nociception assessed as maximum possible effect at 90.1 nmol/kg, po measured after 30 min by tail flick test relative to control. The class given is functional. Particulars: 0.5 h.
For data set [18], the system named is Mus musculus. As to the kind of experiment: Antinociceptive activity against Kunming mouse model of thermal-induced nociception assessed as maximum possible effect at 90.1 nmol/kg, po measured after 60 min by tail flick test relative to control. The class given is functional. The following applies: 1 h.

T1 sequence (P41143 whole entry): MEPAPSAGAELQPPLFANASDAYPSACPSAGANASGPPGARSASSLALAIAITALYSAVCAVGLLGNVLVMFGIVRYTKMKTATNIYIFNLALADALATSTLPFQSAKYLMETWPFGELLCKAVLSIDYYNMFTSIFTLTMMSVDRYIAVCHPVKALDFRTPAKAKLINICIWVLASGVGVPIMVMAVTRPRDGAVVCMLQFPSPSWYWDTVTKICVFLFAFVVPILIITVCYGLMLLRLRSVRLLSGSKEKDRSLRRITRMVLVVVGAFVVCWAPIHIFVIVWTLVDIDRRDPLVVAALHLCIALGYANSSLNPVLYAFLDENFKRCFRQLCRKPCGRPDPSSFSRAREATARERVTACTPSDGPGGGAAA
Sequence of Mu-type opioid receptor (P35372 whole entry): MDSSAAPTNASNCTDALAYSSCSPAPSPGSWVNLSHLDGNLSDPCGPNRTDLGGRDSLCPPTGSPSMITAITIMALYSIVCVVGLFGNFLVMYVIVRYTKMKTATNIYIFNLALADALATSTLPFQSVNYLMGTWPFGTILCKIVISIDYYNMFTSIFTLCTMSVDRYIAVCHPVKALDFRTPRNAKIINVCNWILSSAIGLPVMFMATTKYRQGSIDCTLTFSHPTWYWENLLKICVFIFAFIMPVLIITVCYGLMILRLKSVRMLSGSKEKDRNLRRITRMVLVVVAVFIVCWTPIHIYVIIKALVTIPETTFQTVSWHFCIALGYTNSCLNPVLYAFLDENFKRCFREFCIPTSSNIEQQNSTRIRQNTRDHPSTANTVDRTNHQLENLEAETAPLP

With `CN1C(=O)CNC(=O)[C@H](NC(=O)[C@@H](N)Cc2ccc(O)cc2)CCNC(=O)C[C@@H](C(=O)N2CCC[C@H]2C(=O)N[C@@H](CCC(N)=O)C(=O)N[C@@H](CCCNC(=N)N)C(=O)N[C@@H](Cc2ccccc2)C(N)=O)NC(=O)[C@@H]1Cc1ccccc1` (H-Y[dDab]G[NMeF]DPQRF-NH2; lactam 2-5), the “Ratio ED50” value in the data set with Mus musculus [1] is recorded as 15.2. Also, the MPE is reported as 74% in the data set on Mus musculus [2], 93.8% with Mus musculus [5] and 80.8% in the data set with Mus musculus [14]. For the same compound, in data set [3], the half-life at 10000 µM was determined as 8.83 h. Also, the pEC50 in data set [4] is 7.02; in [7], 6.58; in data set [8], 6.74; on Mu-type opioid receptor, 7.42; in data set [11], 7.15. Further, the result in the data set with Mus musculus [6] was inactive. The Emax in data set [9] was determined as 63.2%; in [12], 31.2%; in [15], 73.4%. In the data set on Mus musculus [10], the ED50 turned out to be 0.0142 µmol/kg. Besides, the Tlast in the data set on Mus musculus [13] is reported as 240 min.

For `CN1C(=O)CNC(=O)[C@H](NC(=O)[C@@H](N)Cc2ccc(O)cc2)CNC(=O)C[C@@H](C(=O)N2CCC[C@H]2C(=O)N[C@@H](CCC(N)=O)C(=O)N[C@@H](CCCNC(=N)N)C(=O)N[C@@H](Cc2ccccc2)C(N)=O)NC(=O)[C@@H]1Cc1ccccc1` (H-Y[dDap]G[NMeF]DPQRF-NH2; lactam 2-5), in the data set on Mus musculus [1], the “Ratio ED50” value turned out to be 16. Further, the half-life at 10000 µM in data set [3] turned out to be 1.09 h. The pEC50 was 6.43 in data set [4]; 6.46 in [7]; 7.05 in data set [8]; 6.62 on Mu-type opioid receptor; 6.87 in [11]. The result in the data set on Mus musculus [6] was inactive. Also, the MPE in the data set with Mus musculus [16] was determined as 93.2%; in the data set on Mus musculus [17], 97.5%; in the data set on Mus musculus [18] it was 80.8%. In addition, the EC50 in [7] (read-out: pEC50 (converted)) was 355 nM. The Emax in data set [9] worked out at 63.9%; in data set [12] (filed as agonist), 48%; in [15], 47.5%. In addition, in the data set on Mus musculus [10], the ED50 came out at 0.0135 µmol/kg. The Tlast in the data set with Mus musculus [13] came to 240 min.

Source of the values: ChEMBL document CHEMBL5034023, “Development of Multifunctional and Orally Active Cyclic Peptide Agonists of Opioid/Neuropeptide FF Receptors that Produce Potent, Long-Lasting, and Peripherally Restricted Antinociception with Diminished Side Effects” (J Med Chem, 2021).
